The values below come from the METLIN SMRT retention time set (Domingo-Almenara et al. 2019).

The structures appear in SMILES notation.

The data set can be described thus: gradient 5% acetonitrile 3 min, to 50% in 2 min, to 85% in 15 min, held 3 min, 100 µL/min. To be noted: column: Zorbax Extend-C18 2.1 x 50 mm; eluents: water / acetonitrile, 0.1% formic acid. In outline: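 Retention times come from adduct peaks that were picked computationally and then checked by hand. The standards, pure and pooled in mixtures of ~100 molecules, were run on a Zorbax Extend-C18 column (2.1 × 50 mm, 1.8 μm) at 100 μL/min with water and acetonitrile, each with 0.1% formic acid. Detection was by quadrupole time-of-flight mass spectrometry in positive and negative ionization mode, with a dead volume of 40 μL and a dwell volume of 900 μL.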
For `CCS(=O)(=O)N1CCCc2cc(C(=O)NC3CCCC3)ccc21`, the RP-LC retention time came out at 837 s.
The same measure for `CC(=O)c1ccc(NC(=O)CNS(=O)(=O)c2ccc(C(C)(C)C)cc2)cc1`: 663 s; for `COc1ccc(-c2cc(=O)n3c4ccccc4n(CC(=O)Nc4ccc5c(c4)OCO5)c3n2)cc1`: 720 s.
The same measure for `Cc1nc(-c2ccc3c(c2)CCN3C(=O)COc2ccc(Cl)cc2)cs1`: 1080 s; for `O=C(Nc1ccccc1-c1cn2c(CN3CCNCC3)csc2n1)c1cnc2ccccc2n1`: 783 s.
The same measure for `COc1ccc(CNC(=O)c2nnc(-c3ccc(S(=O)(=O)N4CCOCC4)cc3)o2)cc1`: 829 s.
In turn, `O=C(Nc1ccc(N2CCN(C3CCCC3)C2=O)nc1)c1ccncc1` came in with an RP-LC retention time of 635 s.
The same measure for `O=C(COc1ccc(Cl)cc1)N1CCN(c2cc(-c3ccccc3)[nH]n2)CC1`: 814 s; for `Cn1cc(-c2nc(C(=O)NCc3ccc(C(F)(F)F)cc3)cs2)c2cccnc21`: 1040 s; for `Cc1nc(C)c(C(=O)N(Cc2ccccn2)c2nc3c(Cl)cccc3s2)s1`: 957 s.
Regarding `CCN1CCCn2nc(C3CCN(C(=O)c4cccnc4SC)CC3)cc2C1=O`, the RP-LC retention time stood at 649 s.
Take `CC(C)C(=O)N1CCc2[nH]nc(C(=O)NCCCc3ccccc3)c2C1`: the RP-LC retention time was 756 s.
Next, `Cc1noc(C)c1-c1ccc(S(=O)(=O)N2CCN(c3ccccn3)CC2)cc1`: 676 s; `CCOC(=O)c1c(C)[nH]c(CCC(=O)NCc2ccc(SC)cc2)c1C`: 714 s.
The same measure for `Cc1ccc(CNc2nc3ccncc3n(C(C)C)c2=O)cc1`: 701 s; for `CCc1nc2ccccc2c(=O)n1Cc1noc(/C=C/c2ccc(OC)cc2)n1`: 1000 s.
Molecule `CCN1CCC(N(Cc2cccs2)C(=O)Nc2ccccc2C)CC1` had an RP-LC retention time of 646 s.
The same measure for `Nc1cc(C2CCN(C(=O)c3ccc(F)c(F)c3)CC2)no1`: 680 s; for `N#Cc1cccc(CN2CCCCC2c2nncn2CC2CC2)c1` (centres undefined): 618 s.
`Cc1ccc(C)c(S(=O)(=O)N2CCc3nc[nH]c3C2)c1` displayed an RP-LC retention time of 627 s.
Molecule `CCN1CCN(S(=O)(=O)c2ccc(Cl)c(C(F)(F)F)c2)CC1` yielded an RP-LC retention time of 569 s.
In turn, `COc1ccc(CN2CCc3nc(N4CCOCC4)ncc3C2)c(OC)c1` displayed an RP-LC retention time of 611 s.
Next, `Cc1noc(C)c1S(=O)(=O)N1CCC(Cc2nncn2-c2ccccc2)CC1`: 780 s.
Next, `CC(C)CNC(=O)/C=C\C(=O)O`: 717 s; `Cc1ccc(C)c(S(=O)(=O)N2CC=C(c3cn(C)c4ncccc34)CC2)c1`: 1070 s; `COCCCNC(=O)Cn1c(=O)n(-c2ccc(C)cc2)c2ncccc21`: 692 s.
The same measure for `COC(=O)c1ccc(NC(=O)C2CCN(S(=O)(=O)c3ccc4c(c3)sc(=O)n4C)CC2)cc1`: 854 s; for `O=C(c1ccc(N2C[C@H]3C[C@H](C2)[C@H]2CCCC(=O)N2C3)nc1)N1CCN(c2ncccn2)CC1`: 567 s; for `CCc1ccc(CNC(=O)CC2CCN(C(=O)c3[nH]c(C)c(C(=O)OC)c3C)CC2)cc1`: 795 s.
`COc1cc(OC)cc(N2C(=O)C3N=NN(Cc4nc(-c5ccc(OC(C)C)cc5)no4)C3C2=O)c1` (centres undefined) displayed an RP-LC retention time of 1090 s.
The same measure for `Cc1cc(C)cc(C(=O)NCc2ccc(N3CCOCC3)nc2)c1`: 628 s.
The same measure for `CCCC(=O)Nc1ccc2c(c1)CN(C(=O)CC1CCCC1)C(C(=O)N(C)C)C2` (centres undefined): 716 s.
Consider `Cc1ccn2c(NC(=O)c3cccc(F)c3)c(-c3ccccc3)nc2c1`, for which the RP-LC retention time was 670 s.
Next, `O=C(NCc1ccco1)C1CCN(c2cnn(Cc3ccccc3)c(=O)c2)CC1`: 723 s; `COc1ccc(C(=O)N2CCC(Oc3cc(N(C)C)ncn3)C2)cc1` (centres undefined): 650 s; `COc1ccc(CN(Cc2ccccc2)Cc2cc(=O)n3cc(Cl)ccc3n2)cc1`: 721 s.
Next, `CN(C)S(=O)(=O)N1CCC(c2nnc(C(F)(F)F)o2)CC1`: 758 s; `COc1ccc(OC)c(NC(=O)c2cc3c(n(-c4ccc(F)cc4)c2=O)CCCC3=O)c1`: 930 s.
`CCOc1ccc(C(=O)Nc2nc(-c3ccccc3)cs2)cc1Cl` showed an RP-LC retention time of 1260 s.
Next, `CC(C)N1CCn2cc(S(=O)(=O)Nc3cccc(Cl)c3)cc2C1=O`: 805 s; `CCCc1noc(-c2cccn3c(CC(=O)N4CCSCC4)nnc23)n1`: 653 s.
Next, `COc1ccc(-c2noc(CN3C(=O)COc4ccc(Cl)cc43)n2)cc1`: 1050 s.
In turn, `CC(C)C(=O)N1CCc2cc(C(=O)NC3CC3)ccc21` registered an RP-LC retention time of 698 s.
Next, `CC(=O)N1CCc2cc(C)c(S(=O)(=O)NC3CC3)cc21`: 709 s.
The same measure for `CCCNC(=O)C1c2ccccc2CCN1C(=O)C1CC1` (centres undefined): 725 s; for `CCOC(=O)C1=C(CN2CCC(c3ccccc3)C2)NC(=O)NC1c1cccc(OC)c1OC` (centres undefined): 687 s; for `CC(NC(=O)c1ccc2c(c1)nc1n2CCN(C2CCCCC2)C1=O)c1ccccc1` (centres undefined): 836 s.
Molecule `Cc1cnc(CC2CCN(S(=O)(=O)c3cn(C)cn3)C2)n1Cc1ccccc1` (centres undefined) returned an RP-LC retention time of 590 s.
As to `COc1cccc(CNC(=O)C2(C)CCCN(S(=O)(=O)c3ccc(F)cc3F)C2)c1` (centres undefined), the RP-LC retention time is 922 s.
The same measure for `CCCN1C(=O)c2c(C(=O)NCc3cccc(C)c3)ncn2CC1(C)C(=O)NCCC(C)C` (centres undefined): 879 s.
As for `Cc1ccc(Nc2c(-c3ccccc3Cl)nc3ccc(Br)cn23)cc1`, the RP-LC retention time came out at 1110 s.
Next, `O=C(NCc1ccc(F)cc1)NC1CCCN(c2cc(-c3ccncc3)[nH]n2)C1` (centres undefined): 610 s.
Turning to `CCCNC(=O)CCc1nc2ccccc2n(CC(=O)Nc2cccc(CC)c2)c1=O`, the RP-LC retention time turned out to be 845 s.
`COc1ccc(OCc2nc(-c3ccc(-c4csc(C5CC5)n4)cc3)no2)cc1` returned an RP-LC retention time of 1300 s.
The same measure for `CCCCCN1CC(=O)N(c2cccc(Cl)c2)[C@@H]2CS(=O)(=O)C[C@@H]21`: 854 s; for `Cc1[nH]c2ccccc2c1C(Nc1nc2ccccc2s1)c1ccccn1` (centres undefined): 703 s.
In turn, `CCn1cc(-c2nc(CC(=O)Nc3ccc(OC)c(F)c3)cs2)c2cccnc21` had an RP-LC retention time of 884 s.
In the case of `Cc1cc(C2CCCN2C(=O)Nc2ccccc2C(F)(F)F)on1` (centres undefined), the RP-LC retention time is 812 s.
Next, `CCC(=O)N1c2ccc(S(=O)(=O)CCC(=O)NC3CCN(Cc4ccccc4)CC3)cc2CC1C` (centres undefined): 640 s; `O=C(c1ccc(-c2ccc3c(c2)CCN3S(=O)(=O)c2cccc(F)c2)cc1)N1CCOCC1`: 937 s.
`CN1C(=O)c2cc(C(=O)NCCC3=CCCCC3)nn2CC1(C)C(=O)NCc1ccc(F)cc1` (centres undefined) gave an RP-LC retention time of 811 s.
Molecule `Cc1cc(C)c(NS(=O)(=O)c2ccc(Cl)c(C(=O)O)c2)c(C)c1` had an RP-LC retention time of 829 s.
Regarding `CCOC(=O)c1c(S(=O)(=O)N2CCC(C(=O)NCc3ccc(C)o3)CC2)c(C)n(C)c1C`, the RP-LC retention time turned out to be 764 s.
Regarding `Cc1sc(C)c(S(=O)(=O)NCC2CCCO2)c1-c1cc(C(F)(F)F)on1` (centres undefined), the RP-LC retention time turned out to be 1020 s.
The same measure for `CCc1nc2cccnc2n1C1CCN(C(=O)CCCc2ccccc2)C1` (centres undefined): 647 s; for `CC(COc1ccccc1)NC(C)C(O)c1ccc(O)cc1` (centres undefined): 686 s; for `O=C(CCn1nnc2cc(-c3noc(Cc4cccc(F)c4)n3)ccc21)N1CCCC1`: 855 s.
Next, `Cc1cc(NS(=O)(=O)c2c(C)sc(C)c2-c2n[nH]c(C)c2C)ccc1Br`: 1180 s.
Next, `Cc1ccc(CN2CCN(CC(=O)Nc3ccc4c(c3)OCO4)C(=O)C2=O)cc1`: 742 s; `O=C(NCc1ccccn1)c1cccc(N2CCNC(c3ccccc3)C2)n1` (centres undefined): 564 s; `Cc1ccc(-c2ccc(-n3nc(C)c(S(=O)(=O)N4CCCC(C)C4)c3C)nn2)cc1` (centres undefined): 1230 s.
Turning to `COc1cc(NC(=O)CSc2ccc(N3CCOCC3)nn2)cc(OC)c1`, the RP-LC retention time came to 682 s.
`CC(Oc1ccc(-c2cnc3ccccc3n2)cc1)C(=O)N(C)Cc1ccco1` (centres undefined): the RP-LC retention time was 620 s.
Regarding `COc1cc(CCC(=O)N2CCN(c3cc(=O)n(C)c(=O)n3C)CC2)cc(OC)c1OC`, the RP-LC retention time was determined as 647 s.
With `O=C(c1cc2ccccc2[nH]1)N1CCN(Cc2nc3ccccc3[nH]2)CC1`, the RP-LC retention time amounted to 576 s.
As for `CCn1cnc(S(=O)(=O)N2CCCC(C(=O)Nc3ccc(C)cc3Cl)C2)c1` (centres undefined), the RP-LC retention time amounted to 809 s.
As for `C[C@H]1C2Cc3ccc(O)cc3[C@@]1(C)CCN2CC1CC1`, the RP-LC retention time was 669 s.
Consider `O=C(CN1C(=O)C(C(=O)N2CCCCC2)Sc2ccccc21)N1CCN(c2ccccc2)CC1` (centres undefined), for which the RP-LC retention time stood at 907 s.
Next, `O=C(Cn1c(=O)oc2ccc(Cl)cc21)N1CCc2ccccc21`: 898 s.
